From ChEMBL document CHEMBL1177689, “Structural characteristics of green tea catechins for formation of protein carbonyl in human serum albumin” (Bioorg Med Chem, 2010) come the findings set out here.

Structures are written as SMILES.

Data set [1] deals with Albumin (Homo sapiens, UniProt P02768). The data set can be described thus: Binding affinity to human serum albumin in 100 mM phosphate buffer at pH 7.4 assessed as formation of biotin-LC-hydrazide labeled protein carbonyls at 100 uM pretreated 60 mins before biotin-LC-hydrazide challenge measured after 60 mins by SDS-PAGE/Western blotting. In kind it is ADME. The following applies: isolated protein, pH 7.4, 1 h.

Data set [2] can be described thus: Chemical stability in 100 mM phosphate buffer at pH 7.4 at 100 uM after 60 mins by HPLC analysis. In kind it is physicochemical. The following applies: pH 7.4, 1 h.

Albumin, sequence (P02768 whole entry): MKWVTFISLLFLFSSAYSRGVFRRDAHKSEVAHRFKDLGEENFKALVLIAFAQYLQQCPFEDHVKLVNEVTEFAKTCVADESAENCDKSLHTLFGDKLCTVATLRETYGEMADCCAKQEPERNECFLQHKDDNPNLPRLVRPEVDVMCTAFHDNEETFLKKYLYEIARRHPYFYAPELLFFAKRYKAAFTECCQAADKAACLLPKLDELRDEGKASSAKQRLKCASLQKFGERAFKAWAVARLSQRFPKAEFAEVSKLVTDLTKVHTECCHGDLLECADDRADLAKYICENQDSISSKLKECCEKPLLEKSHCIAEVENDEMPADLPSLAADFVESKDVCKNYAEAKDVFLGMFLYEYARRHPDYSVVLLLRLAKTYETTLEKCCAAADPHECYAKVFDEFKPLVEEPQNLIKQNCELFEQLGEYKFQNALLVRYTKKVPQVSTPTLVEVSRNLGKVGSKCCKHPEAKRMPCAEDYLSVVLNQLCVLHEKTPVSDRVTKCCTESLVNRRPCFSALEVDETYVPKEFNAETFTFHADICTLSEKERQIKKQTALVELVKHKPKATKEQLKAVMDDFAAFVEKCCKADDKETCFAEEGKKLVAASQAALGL

Take `O=C(O)c1ccc(O)c(O)c1` [PROTOCATECHUIC ACID]: the Activity entry in data set [1] is “Not Active”. For the compound `O=C(O[C@@H]1Cc2c(O)cc(O)cc2O[C@@H]1c1ccc(O)c(O)c1)c1cc(O)c(O)c(O)c1` [EPICATECHIN GALLATE], the Stability entry in data set [2] is given as “Stable”. Moreover, the outcome in data set [1] was Active. As to `COc1c(O)cc(C(=O)O[C@@H]2Cc3c(O)cc(O)cc3O[C@@H]2c2cc(O)c(O)c(O)c2)cc1O`, the result in data set [1] was Active. The same measure, in the same setting: with `O=C(O)c1cc(O)cc(O)c1` [3,5-DIHYDROXYBENZOIC ACID] the entry was “Not Active”. Still for that read-out and setting: the result for `Oc1cccc(O)c1O` [PYROGALLOL] reads “Active”. Consider `O=C(O[C@@H]1Cc2c(O)cc(O)cc2O[C@@H]1c1cc(O)c(O)c(O)c1)c1cc(O)c(O)c(O)c1` [EPIGALOCATECHIN GALLATE], for which the Stability entry in data set [2] is given as “Unstable”. Also, the result in data set [1] was Active.

Regarding `COC(=O)c1cc(O)c(O)c(O)c1` [GALLIC ACID METHYL ESTER], the Activity entry in data set [1] was “Not Active”. `COc1cc(C(=O)O[C@@H]2Cc3c(O)cc(O)cc3O[C@@H]2c2cc(O)c(O)c(O)c2)cc(O)c1O`: the Stability entry in data set [2] is given as “Unstable”. Further, the result in data set [1] was Active. The corresponding values for `COc1c(O)cc([C@H]2Oc3cc(O)cc(O)c3C[C@H]2OC(=O)c2cc(O)c(O)c(O)c2)cc1O` are “Stable” and “Active”.

Take `Oc1cc(O)c2c(c1)O[C@H](c1cc(O)c(O)c(O)c1)[C@H](O)C2` [EPIGALLOCATECHIN]: the Stability result in data set [2] is “Unstable”. Also, the outcome in data set [1] was Active. In the same order, the values of `Oc1cc(O)c2c(c1)O[C@H](c1ccc(O)c(O)c1)[C@H](O)C2` [(-)-EPICATECHIN] are “Stable” and “Active”. Consider `O=C(O)c1cccc(O)c1O` [2,3-DIHYDROXYBENZOIC ACID], for which, in data set [1], the Activity entry is listed as “Not Active”.
